# Results: US20170318812A1, “Plant and Crop Growth Regulating/Biostimulant Formulations and Methods of Use” (Arysta Lifescience North America, LLC, priority 2014, published 2017)
# Test system: TRZAX Triticum aestivum (Soft wheat)
# Assay: Ipfencarbazone biostimulant effect, early post emergence foliar application, greenhouse pots, plant height: wheat
# Type: in vivo
# Text: The original objective of this Example was to evaluate the herbicidal effect of ipfencarbazone when applied as a post emergent treatment to a range of selected crops and weeds. Unexpectedly, crop plant growth stimulation was observed. The actual species of weeds and crops are listed in the summary data tabulated below and in FIGS. 1-13. By convention each plant species has a Bayer code (5-letter name) with the scientific name for the plant referenced in FIGS. 1-13. In each Figure, each tray contains the same configuration of weeds and/or crops. In each Figure there is one replication of each treatment (six treatments in total). The top three photographs in each Figure show the Bayer Codes and bottom three photographs are aligned with the top three facilitating viewing of the same plant species. Throughout the Examples various abbreviations as conventional shorthand notation and will be appreciated by those skilled in the art. Some exemplary abbreviations include, “CV”=Co-efficient of Variation,” “LSD”=Least Significant Difference” (G/L (gram per L) AND GA/L (gram of active ingredient per L); “SC”=suspension concentrate formulation. The diluent in all treatments was water. By convention factors that are identical in all treatments (e.g. diluent and surfactant) are not listed in each treatment.
# Methods: The indicated size pots (see Tables below) are filled with a specific soil, the soil properties being indicated below. The referenced crops and weeds are planted by hand in each pot. […] The experiments include six treatments each replicated three times on each crop/weed species. At a specific time after emergence each crop and weed species was treated with ipfencarbazone plus a non-ionic surfactant (NIS). In the present Example, the surfactant employed was ENERGIC™ (non-ionic surfactant). The application timing is indicated in each of the Tables (1 or 2 leaf stage) below. Ipfencarbazone plus surfactant was diluted in water and applied at a rate equivalent to about 250 L/ha. Ipfencarbazone was applied using a track sprayer. After treatment, the pots were randomized in a greenhouse. At each assessment (indicated by “days after treatment” or DAT) the height of each plant was measured. The letters next to each mean indicate the level of statistical significance.
# Replications: 3, Untreated treatments: 1, Design: Randomized Complete Block (RCB), Treatment units: Treated ‘Plot’ experimental unit size, Dry Form. Unit: %, Treated ‘Plot’ experimental unit size Width: 1 meter, Treated ‘Plot’ experimental unit size Length: 1.4 meters, Application volume: 250 L/ha, Mix size: 0.15 liters, […]
# [1] = TRZAX BRS327, 125 g ai/ha, 28 DA-A
# [2] = TRZAX BRS327, 250 g ai/ha, 15 DA-A
# [3] = TRZAX BRS327, 250 g ai/ha, 28 DA-A
# [4] = TRZAX BRS327, 500 g ai/ha, 15 DA-A
# [5] = TRZAX BRS327, 500 g ai/ha, 28 DA-A
# [6] = TRZAX BRS327, 1000 g ai/ha, 15 DA-A
# [7] = TRZAX BRS327, 1000 g ai/ha, 28 DA-A
# [8] = TRZAX Iguaçú, 62.5 g ai/ha, 15 DA-A
# [9] = TRZAX Iguaçú, 62.5 g ai/ha, 28 DA-A
# [10] = TRZAX Iguaçú, 125 g ai/ha, 15 DA-A
# [11] = TRZAX Iguaçú, 125 g ai/ha, 28 DA-A
# [12] = TRZAX Iguaçú, 250 g ai/ha, 15 DA-A
# [13] = TRZAX Iguaçú, 250 g ai/ha, 28 DA-A
# [14] = TRZAX Iguaçú, 500 g ai/ha, 15 DA-A
# [15] = TRZAX Iguaçú, 500 g ai/ha, 28 DA-A
# [16] = TRZAX Iguaçú, 1000 g ai/ha, 15 DA-A
# [17] = TRZAX Iguaçú, 1000 g ai/ha, 28 DA-A
# [18] = TRZAX Itaipú, 62.5 g ai/ha, 15 DA-A
# [19] = TRZAX Itaipú, 62.5 g ai/ha, 28 DA-A
# [20] = TRZAX Itaipú, 125 g ai/ha, 15 DA-A
# [21] = TRZAX Itaipú, 125 g ai/ha, 28 DA-A
# [22] = TRZAX Itaipú, 250 g ai/ha, 15 DA-A
# [23] = TRZAX Itaipú, 250 g ai/ha, 28 DA-A
# [24] = TRZAX Itaipú, 500 g ai/ha, 15 DA-A
# [25] = TRZAX Itaipú, 500 g ai/ha, 28 DA-A
# [26] = TRZAX Itaipú, 1000 g ai/ha, 15 DA-A
# [27] = TRZAX Itaipú, 1000 g ai/ha, 28 DA-A
smiles,measurement,setting,value
"CC(C)N(C(=O)n1cnn(-c2ccc(Cl)cc2Cl)c1=O)c1ccc(F)cc1F [ARY-0572-001, ipfencarbazone]","HEIGHT, treatment mean","TRZAX BRS327, 125 g ai/ha, 15 DA-A",27.6 a cm
same,"HEIGHT, percent of untreated check (APoC)",[1],(156.7%)
same,"HEIGHT, treatment mean",[1],35.0 a cm
same,"HEIGHT, percent of untreated check (APoC)",[2],(171.4%)
same,"HEIGHT, treatment mean",[2],32.0 a cm
same,"HEIGHT, percent of untreated check (APoC)",[3],(204.0%)
same,"HEIGHT, treatment mean",[3],45.6 a cm
same,"HEIGHT, percent of untreated check (APoC)",[4],(130.7%)
same,"HEIGHT, treatment mean",[4],24.4 a cm
same,"HEIGHT, percent of untreated check (APoC)",[5],(141.3%)
same,"HEIGHT, treatment mean",[5],31.6 a cm
same,"HEIGHT, percent of untreated check (APoC)",[6],(92.9%)
same,"HEIGHT, treatment mean",[6],17.3 a cm
same,"HEIGHT, percent of untreated check (APoC)",[7],(126.4%)
same,"HEIGHT, treatment mean",[7],28.2 a cm
same,"HEIGHT, percent of untreated check (APoC)",[8],(158.8%)
same,"HEIGHT, treatment mean",[8],24.6 a cm
same,"HEIGHT, percent of untreated check (APoC)",[9],(129.6%)
same,"HEIGHT, treatment mean",[9],29.2 bc cm
same,"HEIGHT, percent of untreated check (APoC)",[10],(168.5%)
same,"HEIGHT, treatment mean",[10],26.1 a cm
same,"HEIGHT, percent of untreated check (APoC)",[11],(133.5%)
same,"HEIGHT, treatment mean",[11],30.1 be cm
same,"HEIGHT, percent of untreated check (APoC)",[12],(193.2%)
same,"HEIGHT, treatment mean",[12],29.9 a cm
same,"HEIGHT, percent of untreated check (APoC)",[13],(192.1%)
same,"HEIGHT, treatment mean",[13],43.3 a cm
same,"HEIGHT, percent of untreated check (APoC)",[14],(153.4%)
same,"HEIGHT, treatment mean",[14],23.8 ab cm
same,"HEIGHT, percent of untreated check (APoC)",[15],(163.1%)
same,"HEIGHT, treatment mean",[15],36.8 ab cm
same,"HEIGHT, percent of untreated check (APoC)",[16],(105.4%)
same,"HEIGHT, treatment mean",[16],16.3 bc cm
same,"HEIGHT, percent of untreated check (APoC)",[17],(82.8%)
same,"HEIGHT, treatment mean",[17],18.7 c cm
same,"HEIGHT, percent of untreated check (APoC)",[18],(169.2%)
same,"HEIGHT, treatment mean",[18],23.8 abc cm
same,"HEIGHT, percent of untreated check (APoC)",[19],(154.6%)
same,"HEIGHT, treatment mean",[19],37.1 a cm
same,"HEIGHT, percent of untreated check (APoC)",[20],(181.4%)
same,"HEIGHT, treatment mean",[20],25.5 ab cm
same,"HEIGHT, percent of untreated check (APoC)",[21],(134.7%)
same,"HEIGHT, treatment mean",[21],32.3 a cm
same,"HEIGHT, percent of untreated check (APoC)",[22],(223.7%)
same,"HEIGHT, treatment mean",[22],31.4 a cm
same,"HEIGHT, percent of untreated check (APoC)",[23],(199.1%)
same,"HEIGHT, treatment mean",[23],47.8 a cm
same,"HEIGHT, percent of untreated check (APoC)",[24],(157.7%)
same,"HEIGHT, treatment mean",[24],22.2 abc cm
same,"HEIGHT, percent of untreated check (APoC)",[25],(100.0%)
same,"HEIGHT, treatment mean",[25],24.0 a cm
same,"HEIGHT, percent of untreated check (APoC)",[26],(111.5%)
same,"HEIGHT, treatment mean",[26],15.7 bc cm
same,"HEIGHT, percent of untreated check (APoC)",[27],(76.9%)
same,"HEIGHT, treatment mean",[27],18.4 a cm
